Where a SMILES comes first, the peptide text is derived from it. [ ]: non-standard residue; d: D form. The star is where a group is joined. NHCH2CH2OH = OCCN*; For = O=C*
Key:
[1] = H+/Na+ transport assay of bead-derived peptides (one-point); format: biochemical; design: key: relative activity; mean of two control wells = 1.00; conditions: bead-derived peptide solution, EYPC/EYPG LUVs;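 note: relative to parent gramicidin A activity set to 1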
Procedure, shortened: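 Miniaturized 96-well format. LUVs with entrapped pyranine (1.0 mM) were exposed to peptide for 30 min at RT. Intensities were expressed relative to full lysis by Triton X-100 and no treatment, with control-well mean = 1.00.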

[2] = cell viability/%
Procedure, shortened: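 First, library peptide stocks are diluted 250-fold in RPMI1640 with 10% heat-inactivated FBS. Next, they are mixed with P388 cells to give 1 × 10^4 cells/mL and incubated 92 h at 37 °C, 5% CO2. Finally, viability (%) is scored by WST-1 absorbance at 415 nm.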

[3] = test system: Streptococcus pyogenes SSI-9; test: Antibacterial activity assay of bead-derived peptides (three concentrations); format: cell-based; design: key: +++: inhibition by the 640-fold diluted peptide solution; ++: inhibition by the 160-fold diluted solution; +: inhibition by the 40-fold diluted solution; -: no inhibition; conditions: S. pyogenes, bead-derived peptide solution, three concentrations
Procedure, shortened: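 Three stock dilutions per peptide (none, 4-fold, 16-fold in DMSO) are screened in 96-well format. The medium is blood-supplemented cation-adjusted MHB, inoculated with 2 × 10^5 CFU S. pyogenes SSI-9. Growth is read as cell precipitation at 18 h, 37 °C.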

Compound: CC(C)C[C@@H](NC(=O)[C@H](Cc1c[nH]c2ccccc12)NC(=O)[C@H](NC(=O)[C@H](Cc1c[nH]c2ccccc12)NC(=O)[C@@H](CC(C)C)NC(=O)[C@@H](NC(=O)[C@H](NC(=O)[C@H](C)NC(=O)[C@H](NC(=O)[C@H](C)NC(=O)CNC(=O)[C@@H](NC=O)C(C)C)[C@H](C)O)C(C)C)C(C)C)[C@H](C)O)C(=O)N[C@@H](Cc1c[nH]c2ccccc12)C(=O)N[C@@H](C(=O)N[C@@H](Cc1c[nH]c2ccccc12)C(=O)NCCO)C(C)C [compound 13245] (For-VGA[dT]A[dV]V[dL]W[dT]W[dL]W[dV]W-NHCH2CH2OH)
- H+/Na+ transport activity normalized against the value of 1 (1.00) [1]: 1.07
- viability [2]: 100%
- antibacterial activity [3]: -

Compound: CC(C)C[C@@H](NC(=O)[C@H](C)NC(=O)CNC(=O)[C@@H](NC=O)C(C)C)C(=O)N[C@@H](C)C(=O)N[C@@H](C(=O)N[C@H](C(=O)N[C@@H](C(=O)N[C@@H](Cc1c[nH]c2ccccc12)C(=O)N[C@H](CC(C)C)C(=O)N[C@@H](Cc1c[nH]c2ccccc12)C(=O)N[C@@H](C(=O)N[C@@H](Cc1c[nH]c2ccccc12)C(=O)N[C@@H](C(=O)N[C@@H](Cc1c[nH]c2ccccc12)C(=O)NCCO)C(C)C)C(C)C)[C@H](C)O)C(C)C)C(C)C [compound 10400] (For-VGA[dL]A[dV]V[dT]W[dL]W[dV]W[dV]W-NHCH2CH2OH)
- H+/Na+ transport activity normalized against the value of 1 (1.00) [1]: 1.04
- viability [2]: 100%
- antibacterial activity [3]: -

Compound: CC(C)C[C@@H](NC(=O)[C@H](Cc1c[nH]c2ccccc12)NC(=O)[C@@H](CC(C)C)NC(=O)[C@H](Cc1c[nH]c2ccccc12)NC(=O)[C@H](NC(=O)[C@H](Cc1c[nH]c2ccccc12)NC(=O)[C@H](NC(=O)[C@@H](NC(=O)[C@H](NC(=O)[C@H](C)NC(=O)[C@H](NC(=O)[C@H](C)NC(=O)CNC(=O)[C@@H](NC=O)C(C)C)C(C)C)C(C)C)C(C)C)[C@H](C)O)[C@H](C)O)C(=O)N[C@@H](Cc1c[nH]c2ccccc12)C(=O)NCCO [compound 12293] (For-VGA[dV]A[dV]V[dT]W[dT]W[dL]W[dL]W-NHCH2CH2OH)
- H+/Na+ transport activity normalized against the value of 1 (1.00) [1]: 1.00
- viability [2]: 100%
- antibacterial activity [3]: -

Compound: CNC(=O)C[C@@H](NC(=O)[C@H](Cc1c[nH]c2ccccc12)NC(=O)[C@@H](CC(C)C)NC(=O)[C@@H](NC(=O)[C@@H](CC(C)C)NC(=O)[C@H](C)NC(=O)[C@@H](CC(C)C)NC(=O)[C@H](C)NC(=O)CNC(=O)[C@@H](NC=O)C(C)C)C(C)C)C(=O)N[C@@H](Cc1c[nH]c2ccccc12)C(=O)N[C@@H](C(=O)N[C@@H](Cc1c[nH]c2ccccc12)C(=O)N[C@H](CC(C)C)C(=O)N[C@@H](Cc1c[nH]c2ccccc12)C(=O)NCCO)C(C)C [compound 2432] (For-VGA[dL]A[dL]V[dL]W[dD](NHMe)W[dV]W[dL]W-NHCH2CH2OH)
- H+/Na+ transport activity normalized against the value of 1 (1.00) [1]: 1.06
- viability [2]: 100%
- antibacterial activity [3]: -

Compound: CNC(=O)C[C@@H](NC(=O)[C@H](Cc1c[nH]c2ccccc12)NC(=O)[C@H](NC(=O)[C@H](Cc1c[nH]c2ccccc12)NC(=O)[C@@H](CC(C)C)NC(=O)[C@H](Cc1c[nH]c2ccccc12)NC(=O)[C@@H](CC(C)C)NC(=O)[C@@H](NC(=O)[C@@H](CC(C)C)NC(=O)[C@H](C)NC(=O)[C@H](NC(=O)[C@H](C)NC(=O)CNC(=O)[C@@H](NC=O)C(C)C)C(C)C)C(C)C)C(C)C)C(=O)N[C@@H](Cc1c[nH]c2ccccc12)C(=O)NCCO [compound 7334] (For-VGA[dV]A[dL]V[dL]W[dL]W[dV]W[dD](NHMe)W-NHCH2CH2OH)
- H+/Na+ transport activity normalized against the value of 1 (1.00) [1]: 1.11
- viability [2]: 94.6%
- antibacterial activity [3]: -
